# According to patent US20260184687A1, “DIHYDROINDENE DERIVATIVES AS MALT1 INHIBITORS” (C4X Discovery Limited, priority 2022, published 2026):
# How the values were obtained:
# [1] = tested on: IL-2 release from stimulated Jurkat cells; experiment: Human IL-2 Release Phenotypic Assay (Assay 3); assay type: cell-based; details: Jurkat cells (clone E6-1), 200 ng/mL PMA + 300 ng/mL ionomycin, IL-2 by ELISA
# Procedure, shortened: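 IC50 values were fitted by 4-parameter non-linear regression to IL-2 release from Jurkat E6-1 cells. Those cells were stimulated for 48 h with PMA (200 ng/mL) plus ionomycin (300 ng/mL) after a 30-min compound pre-incubation at half-log doses in 0.5% DMSO. Cells had been plated at 50 000/well overnight at 37° C.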
# FL hMALT1 enzyme = target: T1, FL hMALT1 enzyme (Homo sapiens, UniProt Q9UDY8); experiment: biochemical;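 also: Cell-free protease assay: enzyme preincubated with compound 30 min at room temperature, then cleavage of fluorogenic Ac-LVSR-AMC substrate (100 µM) tracked by fluorescence (ex 360/em 460 nm)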
# T1 sequence (Q9UDY8 1-824): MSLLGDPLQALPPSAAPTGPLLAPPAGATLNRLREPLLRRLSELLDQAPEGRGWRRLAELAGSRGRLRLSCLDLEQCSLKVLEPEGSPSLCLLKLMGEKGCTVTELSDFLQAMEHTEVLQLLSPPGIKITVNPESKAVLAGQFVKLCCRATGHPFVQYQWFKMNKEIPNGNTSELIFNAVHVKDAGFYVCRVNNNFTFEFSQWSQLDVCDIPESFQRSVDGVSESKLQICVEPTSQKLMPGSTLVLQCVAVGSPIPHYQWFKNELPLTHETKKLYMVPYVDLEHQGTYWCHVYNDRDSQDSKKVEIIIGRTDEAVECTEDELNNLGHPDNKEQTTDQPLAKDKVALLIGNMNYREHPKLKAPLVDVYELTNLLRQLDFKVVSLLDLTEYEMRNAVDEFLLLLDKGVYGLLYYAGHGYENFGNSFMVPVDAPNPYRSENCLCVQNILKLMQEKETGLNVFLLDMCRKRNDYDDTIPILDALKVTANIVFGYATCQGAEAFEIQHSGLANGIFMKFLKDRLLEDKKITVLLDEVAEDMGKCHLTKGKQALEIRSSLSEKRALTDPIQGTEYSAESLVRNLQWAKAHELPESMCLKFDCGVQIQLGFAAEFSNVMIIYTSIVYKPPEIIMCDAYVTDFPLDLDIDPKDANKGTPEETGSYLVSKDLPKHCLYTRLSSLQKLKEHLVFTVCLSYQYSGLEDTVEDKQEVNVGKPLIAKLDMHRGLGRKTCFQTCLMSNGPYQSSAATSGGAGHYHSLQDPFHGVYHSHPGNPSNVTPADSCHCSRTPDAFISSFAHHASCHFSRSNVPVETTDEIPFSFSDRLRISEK
SMILES,"IC50 ([1]; Homo sapiens, Jurkat, 48 h)",IC50 (FL hMALT1 enzyme),IC50 ([1]; 48 hours)
"CN(C(=O)C1CCS(=O)(=O)CC1)[C@@H](c1ccc(NC2Cc3cccc(C(F)(F)F)c3C2)cn1)C(F)(F)F (single isomer, unassigned) [Example 191]",740 nM,26 nM,–
"CN(C(=O)C1CCS(=O)(=O)CC1)[C@@H](c1ccc(N[C@H]2Cc3ccc(Cl)cc3C2)cn1)C(F)(F)F (single isomer, unassigned) [Example 199]",290 nM,73 nM,–
"CN(C(=O)[C@H]1C[C@@]2(COC(=O)N2)C1)[C@@H](c1ccc(NC2Cc3ccccc3C2(C)C)cn1)C(F)(F)F (single isomer, unassigned) [Example 208]",250 nM,27 nM,–
"CN1C(=O)CCC1C(=O)N(C)[C@@H](c1ccc(N[C@H]2Cc3ccccc3C2(C)C)cn1)C(F)(F)F (single isomer, unassigned) [Example 226]",–,39 nM,250 nM
"CNC(=O)N1CC(C(=O)N(C)[C@@H](c2ccc(NC3Cc4ccccc4C3(C)C)cn2)C(F)(F)F)C1 (single isomer, unassigned) [Example 228]",–,57 nM,1000 nM
"CN(C(=O)C1CC2(CCC(=O)N2)C1)[C@@H](c1ccc(NC2Cc3ccccc3C2(C)C)cn1)C(F)(F)F (single isomer, unassigned) [Example 232]",–,30 nM,180 nM
"CC(=O)N1CCC12CC(C(=O)N(C)[C@@H](c1ccc(NC3Cc4ccccc4C3(C)C)cn1)C(F)(F)F)C2 (single isomer, unassigned) [Example 235]",1000 nM,60 nM,–
"COCCN1CCC12CC(C(=O)N(C)[C@@H](c1ccc(NC3Cc4ccccc4C3(C)C)cn1)C(F)(F)F)C2 (single isomer, unassigned) [Example 243]",640 nM,86 nM,–
"CN1CCC(C(=O)N(C)[C@@H](c2ccc(N[C@H]3Cc4ccccc4C3(C)C)cn2)C(F)(F)F)CC1=O (single isomer, unassigned) [Example 250]",300 nM,41 nM,–
"CN1CC(C(=O)N(C)[C@@H](c2ccc(N[C@H]3Cc4ccccc4C3(C)C)cn2)C(F)(F)F)CCC1=O (single isomer, unassigned) [Example 253]",–,66 nM,420 nM
"CN(C(=O)C1CCS(=O)(=O)CC1)[C@@H](c1ccc(NC2Cc3cccc(C4CC4)c3C2)cn1)C(F)(F)F (single isomer, unassigned) [Example 254]",1400 nM,53 nM,–
"CN(C(=O)C1CCS(=O)(=O)CC1)[C@@H](c1ccc(NC2Cc3ccc(F)c(F)c3C2)cn1)C(F)(F)F (single isomer, unassigned) [Example 261]",–,82 nM,1410 nM
"CN(C(=O)C1CCS(=O)(=O)CC1)[C@@H](c1ccc(NC2Cc3ccc(F)c(F)c3C2)cn1)C(F)(F)F (single isomer, unassigned) [Example 262]",–,2680 nM,7700 nM
"CN(C(=O)C1CCS(=O)(=O)CC1)[C@@H](c1ccc(NC2Cc3ccc(F)c(Cl)c3C2)cn1)C(F)(F)F (single isomer, unassigned) [Example 265]",220 nM,32 nM,–
"CN(C(=O)C1CCS(=O)(=O)CC1)[C@@H](c1ccc(NC2Cc3cc(Cl)cc(F)c3C2)cn1)C(F)(F)F (single isomer, unassigned) [Example 270]",270 nM,81 nM,–
"CN(C(=O)C1CCS(=O)(=O)CC1)[C@@H](c1ccc(NC2Cc3ccc(Cl)c(F)c3C2)cn1)C(F)(F)F (single isomer, unassigned) [Example 277]",200 nM,43 nM,–
"CN(C(=O)C1CCS(=O)(=O)CC1)[C@@H](c1ccc(NC2Cc3ccc(Cl)c(Cl)c3C2)cn1)C(F)(F)F (single isomer, unassigned) [Example 279]",96 nM,15 nM,–
"CN(C(=O)C1CCS(=O)(=O)CC1)[C@@H](c1ccc(NC2Cc3cccc(C(F)(F)F)c3C2)nc1)C(F)(F)F (single isomer, unassigned) [Example 281]",460 nM,14 nM,–
"CN(C(=O)C1CCS(=O)(=O)CC1)[C@@H](c1ccc(NC2Cc3ccc(Br)cc3C2)cn1)C(F)(F)F (single isomer, unassigned) [Example 284]",490 nM,85 nM,–
"CN(C(=O)C1CCNC(=O)C1)[C@@H](c1ccc(N[C@H]2Cc3ccc(Cl)cc3C2)cn1)C(F)(F)F (single isomer, unassigned) [Example 314]",380 nM,150 nM,–
"CN(C(=O)[C@@H]1CNC(=O)C1)[C@@H](c1ccc(NC2Cc3ccc(Cl)c(F)c3C2)cn1)C(F)(F)F (single isomer, unassigned) [Example 317]",113 nM,72 nM,–

# Continued by falling IC50 (FL hMALT1 enzyme), values first:
"IC50 ([1]; Homo sapiens, Jurkat, 48 h)",IC50 (FL hMALT1 enzyme),IC50 ([1]; 48 hours),SMILES
–,88 nM,630 nM,"CN(C(=O)C1C2CS(=O)(=O)CC21)[C@@H](c1ccc(NC2Cc3ccccc3C2(C)C)cn1)C(F)(F)F (single isomer, unassigned) [Example 215]"
1200 nM,78 nM,–,"CCc1cccc2c1CC(Nc1ccc([C@H](N(C)C(=O)C3CCS(=O)(=O)CC3)C(F)(F)F)nc1)C2 (single isomer, unassigned) [Example 198]"
590 nM,71 nM,–,"CN1CC(C(=O)N(C)[C@@H](c2ccc(N[C@H]3Cc4ccccc4C3(C)C)cn2)C(F)(F)F)CCC1=O (single isomer, unassigned) [Example 252]"
–,63 nM,520 nM,"CN1C(=O)CCC1C(=O)N(C)[C@@H](c1ccc(N[C@H]2Cc3ccccc3C2(C)C)cn1)C(F)(F)F (single isomer, unassigned) [Example 225]"
510 nM,61 nM,–,"CN(C(=O)C1CCS(=O)(=O)CC1)[C@@H](c1ccc(NC2Cc3cccc(Cl)c3C2)cn1)C(F)(F)F (single isomer, unassigned) [Example 263]"
460 nM,55 nM,–,"CN(C(=O)C1CCS(=O)(=O)CC1)[C@@H](c1ccc(NC2Cc3c(F)ccc(Cl)c3C2)cn1)C(F)(F)F (single isomer, unassigned) [Example 293]"
630 nM,53 nM,–,"CC(=O)N1CCC[C@H]1C(=O)N(C)[C@@H](c1ccc(N[C@H]2Cc3ccccc3C2(C)C)cn1)C(F)(F)F (single isomer, unassigned) [Example 194]"
380 nM,52 nM,–,"CN(C(=O)C1CN(S(C)(=O)=O)C1)[C@@H](c1ccc(NC2Cc3ccccc3C2(C)C)cn1)C(F)(F)F (single isomer, unassigned) [Example 209]"
–,51 nM,1900 nM,"CN(C(=O)C1C2CS(=O)(=O)CC21)[C@@H](c1ccc(NC2Cc3ccccc3C2(C)C)cn1)C(F)(F)F (single isomer, unassigned) [Example 216]"
350 nM,50 nM,–,"CN(C(=O)C1CC2(CCN2CCO)C1)[C@@H](c1ccc(NC2Cc3ccccc3C2(C)C)cn1)C(F)(F)F (single isomer, unassigned) [Example 249]"
300 nM,45 nM,–,"CN(C(=O)C1CCS(=O)(=O)CC1)[C@@H](c1ccc(NC2Cc3ccc(Cl)cc3C2)nc1)C(F)(F)F (single isomer, unassigned) [Example 289]"
340 nM,38 nM,–,"CN(C(=O)C1CC2(CCC(=O)N2)C1)[C@@H](c1ccc(NC2Cc3ccccc3C2(C)C)cn1)C(F)(F)F (single isomer, unassigned) [Example 230]"
–,32 nM,320 nM,"CN1CCC(C(=O)N(C)[C@@H](c2ccc(N[C@H]3Cc4ccccc4C3(C)C)cn2)C(F)(F)F)CC1=O (single isomer, unassigned) [Example 251]"
66 nM,24 nM,–,"CN(C(=O)[C@@H]1CNC(=O)C1)[C@@H](c1ccc(NC2Cc3ccc(Cl)c(Cl)c3C2)cn1)C(F)(F)F (single isomer, unassigned) [Example 319]"
–,18 nM,99 nM,"CNC(=O)N1CC(C(=O)N(C)[C@@H](c2ccc(NC3Cc4ccccc4C3(C)C)cn2)C(F)(F)F)C1 (single isomer, unassigned) [Example 227]"
350 nM,15 nM,–,"CN(C(=O)C1CCS(=O)(=O)CC1)[C@@H](c1ccc(NC2Cc3ccc(Cl)c(C(F)(F)F)c3C2)cn1)C(F)(F)F (single isomer, unassigned) [Example 312]"
200 nM,9 nM,–,"CN(C(=O)C1CCS(=O)(=O)CC1)[C@@H](c1ccc(NC2Cc3ccc(Cl)c(C4CC4)c3C2)cn1)C(F)(F)F (single isomer, unassigned) [Example 306]"
